Test [1] addresses T1, human recombinant NAPRT (Homo sapiens, UniProt Q6XQN6).
T1 sequence (Q6XQN6 1-538): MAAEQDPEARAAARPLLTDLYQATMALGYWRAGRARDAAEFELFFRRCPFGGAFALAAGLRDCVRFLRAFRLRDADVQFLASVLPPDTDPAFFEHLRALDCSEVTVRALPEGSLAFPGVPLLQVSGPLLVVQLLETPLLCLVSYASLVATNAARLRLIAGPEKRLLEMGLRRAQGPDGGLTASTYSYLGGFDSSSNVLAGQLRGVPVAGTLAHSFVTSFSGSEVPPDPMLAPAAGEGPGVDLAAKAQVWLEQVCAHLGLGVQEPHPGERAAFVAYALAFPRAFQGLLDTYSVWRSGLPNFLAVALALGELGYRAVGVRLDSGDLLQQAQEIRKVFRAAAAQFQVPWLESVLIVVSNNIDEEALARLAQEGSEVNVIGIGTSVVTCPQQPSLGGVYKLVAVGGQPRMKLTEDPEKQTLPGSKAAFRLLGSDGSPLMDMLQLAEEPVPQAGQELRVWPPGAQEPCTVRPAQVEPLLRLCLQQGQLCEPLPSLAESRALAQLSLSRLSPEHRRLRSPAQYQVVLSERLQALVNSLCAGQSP
Description: HPLC assay of NAPRT activity. The test is classed as biochemical. Also on record: inferred from purification on a HisTrap IMAC column with imidazole elution; made in house; host or cells: E. coli BL21 (D3). The conditions noted are these: 0.5 mM compound; 0.1 mM NA, 0.4 mM PRPP; HPLC assay (interference with both fluorometric assays).
Description: The amount of enzyme was optimized to provide substrate consumption below 20% of the initial concentration after 10 min of incubation at 37 °C. In addition, withdrawals from the reaction mixture at 5 and 10 min were always performed to ensure a linear time frame. The reaction was stopped by acidification with 0.6 M HClO4. After 10 min on ice, samples were clarified by centrifugation for 2 min at 13,000× g. The supernatants were neutralized with 0.8 M K2CO3, frozen at −20 °C for about 20 min, centrifuged at 13,000× g for 5 min, and injected onto a Supelcosil LC-18-S column (5 µm; 250 × 4.6 mm) thermostatted at 8 °C. […] The elution was monitored at 260 nm (Shimadzu SPD-M20A), and the formed NAMN was quantified by referring to an appropriate standard.
The analyzed compounds were dissolved in 100% v/v DMSO. […] The fluorescence increase was monitored continuously, which allowed us to easily estimate the quality of data and to identify potential artifacts (e.g., arising from compounds precipitation). […] The percentage inhibition was calculated relative to the controls as follows: % inhibition=(Si−Ci)/(µp−µn)×100 where Si represents the signal in the presence of the compound; Ci is the signal of the inhibitor control; and µp and µn are the mean values of the signals of the positive and negative controls, respectively.

The test system of test [2] is OVCAR-5 cells. Description: Intracellular NAD+ levels measurement (cycling assay). It is filed as cell-based. The settings on record: for Effect on NAD+ levels combined with FK866: 200 µM compound with 3 nM FK866, 24 h; for NAD levels: 200 µM compound with 3 nM FK866, after 72 h of incubation as printed. On the procedure:
The compounds were prepared as described above. OVCAR-5 cells were seeded in a 12-well plate (1 × 10^5/well). The day after, cells were treated with combinations of each selected compound (200 µM, final concentration) and FK866 (3 nM, final concentration) and were incubated at 37 °C and 5% CO2. […] Cell lysates were subsequently collected, transferred to new tubes, and diluted in 100 mM Na2HPO4 at pH 8. To determine the amount of NAD^+, we utilized a sensitive cyclic assay that takes advantage of the enzymatic activity of ADH [23]. Briefly, 0.1 mL of the cycling reagent (2% (v/v) ethanol, 100 μg/mL ADH, 20 μM resazurin, 5 μg/mL diaphorase, 10 μM FMN, 10 mM nicotinamide, and 100 mM sodium phosphate, pH 8.0) were added to each well, containing 0.1 mL of each diluted sample. The increase in resorufin fluorescence (544 nm excitation, 590 nm emission) was measured every min over a 2 h period using a fluorescence plate reader (Fluostar Optima, BMG Labtechnologies GmbH, Offenburg, Germany). A NAD^+ standard curve was always run in parallel in each assay.

Test [3] concerns OVCAR-5 cells. Description: Cell viability, sulforhodamine B assay, with or without FK866. The settings on record: for Sensitization of cells to FK866 (cell viability in combination): 200 µM compound with FK866 0 to 100 nM; for Combination index (CI): CompuSyn; for viability at 200 µM: Homo sapiens, OVCAR-5, 200 µM compound with 3 nM FK866, 72 h. The test is classed as cell-based. On the procedure:
The OVCAR-5 cell line was obtained from the NCI-60 panel. Cells were seeded in 96-well plates (3 × 10^3 cells/well) and were treated with the selected compounds at a 200 µM final concentration or with 0.2% DMSO the day after, in combination with increasing concentrations of FK866, ranging from 0 to 100 nM. Treated cells were incubated at 37 °C and 5% CO2 for 72 h. At the end of the treatment, trichloroacetic acid (TCA) (10% final concentration) was added to each well. After 20 min at 4 °C, the wells were washed 4 times with tap water to remove TCA, and they were let to dry. Cell viability was evaluated with the sulforhodamine B assay, as previously described.

Test [4] deals with T1, human recombinant NAPRT. Nature of the test: Continuous coupled fluorometric NADH assay of NAPRT activity. The settings on record: for Inhibitory activity against NAPRT (in words): screening at 0.5 mM.
Description: NADH fluorescence was monitored continuously at 37 °C for 30 min, using a 96-well plate in a Sinergy HT microplate reader (Bio-Tek, Winooski, VT, USA) set at excitation and emission wavelengths of 340 nm and 460 nm, respectively. The slope of the linear fit of fluorescence versus time was used to calculate the NAPRT activity by referring to an NADH standard curve, obtained by plotting the fluorescence of a known amount of NADH versus the nucleotide concentrations. […] These mixtures were optimized to make NadD the rate-limiting enzyme of the ancillary system, i.e., concentrations of the enzyme NadD and the NAMN substrate were chosen to guarantee a linear time course of the fluorescence increase up to 30 min.
The analyzed compounds were dissolved in 100% v/v DMSO. Few compounds were dissolved in water. The compounds were tested at a 0.5 mM concentration. […] The screening was started by using the NADH assay. […] The fluorescence increase was monitored continuously, which allowed us to easily estimate the quality of data and to identify potential artifacts (e.g., arising from compounds precipitation). […] One inhibitor control for each tested compound (compound and no NAPRT), as well as four positive controls (NAPRT and no compound) and four negative controls (no NAPRT and no compound) were included in every reaction plate. The percentage inhibition was calculated relative to the controls as follows: % inhibition=(Si−Ci)/(µp−µn)×100 where Si represents the signal in the presence of the compound; Ci is the signal of the inhibitor control; and µp and µn are the mean values of the signals of the positive and negative controls, respectively.
The IC50 value was determined by plotting the rates versus inhibitor concentration and fitting to the equation: Vi = V0/(1 + [I]/IC50) using GraphPad Prism 7. V0 and Vi represent initial rates in the absence and presence of the inhibitor at concentration [I], respectively.
Ki values were calculated from the straight line deriving from the replotting of the slopes of the reciprocal plot against the concentrations of the inhibitor (secondary plot). In particular, the straight line intersects the x-axis at [I] = −Ki [28].
The target in test [5] is T1, human recombinant NAPRT. Nature of the test: Resazurin/diaphorase-coupled assay of NAPRT activity. The test is classed as biochemical. Also on record: inferred from purification on a HisTrap IMAC column with imidazole elution; made in house; host or cells: E. coli BL21 (D3). The conditions noted are these: 0.5 mM compound; 0.1 mM NA, 0.4 mM PRPP; resazurin/diaphorase-coupled assay (optical interference at NADH wavelength).
Description: The NAPRT concentration was 0.004 × 10^−3 U/mL (2 nM). […] The increase in fluorescence due to resorufin formation in the assay was monitored continuously for 30 min, at 590 nm, after excitation at 530 nm, using a 96-well plate in the Sinergy HT microplate reader at 37 °C. […] To determine the NAPRT activity, the first derivative of the recorded fluorescence curve was calculated, and the slope of the corresponding curve was referred to a standard curve obtained by plotting the fluorescence rate recorded in assay mixtures containing known amounts of NAD^+ in the absence of NAPRT, NadD, and NadE versus the dinucleotide concentrations.
The analyzed compounds were dissolved in 100% v/v DMSO. Few compounds were dissolved in water. The compounds were tested at a 0.5 mM concentration. […] The screening was started by using the NADH assay. […] One inhibitor control for each tested compound (compound and no NAPRT), as well as four positive controls (NAPRT and no compound) and four negative controls (no NAPRT and no compound) were included in every reaction plate. The percentage inhibition was calculated relative to the controls as follows: % inhibition=(Si−Ci)/(µp−µn)×100 where Si represents the signal in the presence of the compound; Ci is the signal of the inhibitor control; and µp and µn are the mean values of the signals of the positive and negative controls, respectively.

[6] abbreviates: FK866 dose 3 nM with 200 µM compound.
[7] abbreviates: FK866 dose 10 nM with 200 µM compound.
Where [8] appears, read: FK866 dose 30 nM with 200 µM compound.
Setting [9] is: FK866 dose 100 nM with 200 µM compound.
Where [10] appears, read: 0.5 mM compound, 0.1 mM NA, 0.4 mM PRPP, NADH assay.
Setting [11] is: towards NA, NA 10 to 50 µM at 0.4 mM PRPP, NADH assay.

Structures are written as SMILES. “Also recorded” adds a separate entry of the source. Read-outs that look alike come from different tables or passages of the source.

For the compound `O=C(O)c1ccccc1N=Nc1ccc(O)cc1` [Compound 22, 2-(4-hydroxyphenylazo) benzoic acid], the inhibition at 500 µM on human recombinant NAPRT [1] is 5%.

Consider `O=C(O)c1cccnc1O` [Compound 1, 2-hydroxynicotinic acid], for which the “Effect on NAD+ levels combined with FK866” value with OVCAR-5 cells [2] is on record as “most effective”. For the same compound, in the test on OVCAR-5 cells [2], the NAD levels result was “about 15%”. The “Sensitization of cells to FK866 (cell viability in combination)” value (shortened to “Sensitization of cells to FK866”) is “reduced cell viability when combined with FK866” in the test with OVCAR-5 cells [3] (72 h) and “sensitize OVCAR-5 cells to the NAMPT inhibitor FK866; also recorded: effective in sensitizing tumor cells to NAMPT inhibitors” with OVCAR-5 cells [3] (72 h, listed as 2-hydroxynicotinic acid). The “Combination index (CI)” value with OVCAR-5 cells [3] (setting [6]) came out at 0.5117; in the test with OVCAR-5 cells [3] (setting [7]) it was 0.3255; in the test with OVCAR-5 cells [3] (setting [8]) it was 0.339; in the test on OVCAR-5 cells [3] (setting [9]), 0.3592. Moreover, in the test on OVCAR-5 cells [3], the viability at 200 µM is ~75%.

For the compound `O=C(O)c1cccnc1F` [Compound 3, 2-fluoronicotinic acid], on human recombinant NAPRT [4], the 50% inhibitory concentration (IC50) was 351 ± 38 µM and the Ki came to 149 ± 14 µM. For the same compound, at human recombinant NAPRT [4] (setting [10]), the inhibition at 500 µM came out at 57%. Also, the “Inhibition Mechanism” value on human recombinant NAPRT [4] (setting [11]) is recorded as “non-competitive”. The “Sensitization of cells to FK866” value in the test with OVCAR-5 cells [3] (72 h) is reported as “did not significantly sensitize cells to FK866 toxicity”.

For the compound `O=C(O)c1cccnc1C(=O)O` [Compound 7, 2,3-pyridine dicarboxylic acid], on human recombinant NAPRT [4] (setting [10]), the inhibition at 500 µM stood at 9%.

Consider `O=C(O)c1ncccn1` [Compound 29, 2-pyrimidine carboxylic acid], for which the inhibition at 500 µM at human recombinant NAPRT [4] (setting [10]) is ≤ 20%.

Take `O=C(O)c1cnccn1` [Compound 9, pyrazine-2-carboxylic acid]: the “Effect on NAD+ levels combined with FK866” value in the test with OVCAR-5 cells [2] is recorded as “most effective”. Besides, the NAD levels in the test with OVCAR-5 cells [2] was ~30%. Also, the “Sensitization of cells to FK866” value was “reduced cell viability when combined with FK866” with OVCAR-5 cells [3] (72 h) and “sensitize OVCAR-5 cells to the NAMPT inhibitor FK866” in the test on OVCAR-5 cells [3] (72 h, listed as pyrazine-2-carboxylic acid). For the same compound, the “Combination index (CI)” value with OVCAR-5 cells [3] (setting [6]) came out at 0.198; with OVCAR-5 cells [3] (setting [7]), 0.0673; in the test with OVCAR-5 cells [3] (setting [8]) it was 0.03276; with OVCAR-5 cells [3] (setting [9]) it was 0.01211. The viability at 200 µM in the test on OVCAR-5 cells [3] was ~80%.

Regarding `O=C(O)c1ccc(O)nc1` [Compound 8, 6-hydroxynicotinic acid], the inhibition at 500 µM at human recombinant NAPRT [4] worked out at 0%.

Regarding `Nc1nccnc1C(=O)O` [Compound 10, 3-aminopyrazine-2-carboxylic acid], on human recombinant NAPRT [5], the inhibition at 500 µM is 6%.

For `CC(=O)Nc1ccccc1` [Compound 37, acetanilide], the inhibition at 500 µM on human recombinant NAPRT [4] (setting [10]) was found to be 0%. The “Inhibitory activity against NAPRT (in words)” value (“Inhibitory activity” below) on human recombinant NAPRT [4] is “inactive”.

For the compound `Nc1c(O)cccc1C(=O)O` [Compound 21, 3-hydroxy anthranilic acid], the inhibition at 500 µM at human recombinant NAPRT [1] worked out at 5%.

Turning to `CC(=O)Oc1ccccc1C(=O)O` [Compound 18, acetyl salicylic acid], at human recombinant NAPRT [4] (setting [10]), the inhibition at 500 µM was 11%.

On to `O=C(O)Cc1cnccn1` [Compound 13, 2-pyrazine acetic acid], for which the inhibition at 500 µM at human recombinant NAPRT [4] (setting [10]) is 0%.

As to `O=C(O)c1ccccn1` [Compound 25, 2-picolinic acid], at human recombinant NAPRT [4] (setting [10]), the inhibition at 500 µM worked out at 6%.

Consider `O=C(O)c1ccccc1O` [Compound 17, salicylic acid], for which, on human recombinant NAPRT [4], the IC50 was 351 ± 19 µM and the inhibition constant (Ki) is 169 ± 15 µM. For the same compound, the inhibition at 500 µM at human recombinant NAPRT [4] (setting [10]) came out at 58%. At human recombinant NAPRT [4] (setting [11]), the “Inhibition Mechanism” value is given as “noncompetitive inhibition; also recorded: non- competitive”. Besides, the “Effect on cell viability in the absence of FK866” value in the test on OVCAR-5 cells [3] (200 µM compound, 72 h, no FK866) is “toxicity”.

For `O=C(O)c1cccnn1` [Compound 15, 3-pyridazine carboxylic acid], at human recombinant NAPRT [4], the half-inhibitory concentration (IC50) was found to be 1370 ± 74 µM and the inhibition constant Ki was 513 ± 13 µM. For the same compound, the inhibition at 500 µM on human recombinant NAPRT [4] (setting [10]) was 30%. On human recombinant NAPRT [4] (setting [11]), the “Inhibition Mechanism” value is “mixed inhibitor”.

Turning to `NC(=O)c1cnccn1` [Compound 12, pyrazinamide], the inhibition at 500 µM at human recombinant NAPRT [4] (setting [10]) stood at 0%.

For `O=C(O)c1ccncc1` [Compound 27, isonicotinic acid], the inhibition at 500 µM at human recombinant NAPRT [4] (setting [10]) came to 0%.

For `Oc1ncccn1` [Compound 32, 2-hydroxypyrimidine], at human recombinant NAPRT [4] (setting [10]), the inhibition at 500 µM came out at 0%. The “Inhibitory activity” value at human recombinant NAPRT [4] is “very poor inhibitors”.

As to `O=C(O)c1ccc(Cl)nc1` [Compound 4, 6-chloronicotinic acid], at human recombinant NAPRT [4], the 50% inhibitory concentration (IC50) amounted to 1260 ± 115 µM, the “Inhibition Mechanism” value is given as 845 ± 69 non-competitive, the Ki amounted to 845 ± 69 µM and the inhibition at 500 µM amounted to 44%.

With `NC1CCC(C(=O)O)CC1` (centres unmarked) [Compound 35, 4-aminocyclohexane carboxylic acid], the inhibition at 500 µM on human recombinant NAPRT [4] (setting [10]) is 0%. Moreover, on human recombinant NAPRT [4], the “Inhibitory activity” value was “inactive”.

In the case of `O=C(O)c1cccc(N2CCOCC2)c1` [Compound 24, 3-morpholinobenzoic acid], at human recombinant NAPRT [5], the inhibition at 500 µM was 0%.

In the case of `Cc1cnc(C(=O)O)c[n+]1[O-]` [Compound 14, Acipimox], the inhibition at 500 µM on human recombinant NAPRT [4] (setting [10]) is 0%.

With `c1cnc(N2CCNCC2)nc1` [Compound 33, 2-(1-piperazinyl)pyrimidine], on human recombinant NAPRT [4] (setting [10]), the inhibition at 500 µM was 0%. Further, at human recombinant NAPRT [4], the “Inhibitory activity” value was “very poor inhibitors”.

Consider `Nc1ncccc1C(=O)O` [Compound 2, 2-aminonicotinic acid], for which, at human recombinant NAPRT [4], the concentration for half-maximal inhibition (IC50) turned out to be 609 ± 69 µM and the inhibition constant (Ki) amounted to 348 ± 36 µM. Further, the inhibition at 500 µM at human recombinant NAPRT [4] (setting [10]) came to 38%. Further, at human recombinant NAPRT [4] (setting [11]), the “Inhibition Mechanism” value is listed as “mixed”. Besides, the “Sensitization of cells to FK866” value in the test with OVCAR-5 cells [3] (72 h) was “did not significantly sensitize cells to FK866 toxicity”.

Turning to `O=C(O)c1ccccc1` [Compound 19, benzoic acid], on human recombinant NAPRT [4], the inhibition at 500 µM came out at 8%.

Consider `O=C(O)c1cncnc1` [Compound 28, 5-pyrimidine carboxylic acid], for which the inhibition at 500 µM at human recombinant NAPRT [4] (setting [10]) is ≤ 20%.

Regarding `Nc1ccccc1C(=O)O` [Compound 20, anthranilic acid], the inhibition at 500 µM on human recombinant NAPRT [4] is 5%.

Source of the values: article PMC9919730, “A Versatile Continuous Fluorometric Enzymatic Assay for Targeting Nicotinate Phosphoribosyltransferase” (Molecules, 2023).
